Laboratory results reported in the supplement of paper PMC10307832.

Assays:
Assay in all cases: relative viability (nuclei count vs DMSO), 5 days (fraction); higher = more cells survive
[1] = test system: A-427
Summary of the method: (§1)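 Lung cancer cell lines in 1536-well plates were dosed by pin tool the day after seeding, either with one drug alone or with a fixed anchor-drug dose plus five library-drug doses (not always all listed) in √10 steps. After 5 days, cells were fixed and their nuclei stained in one step (final 0.05% Triton X-100, 1% formaldehyde, 1 ug/ml Hoechst), then counted on 4× images. Relative viability is the nuclei count in treated wells divided by that in vehicle wells. Values are medians of duplicate plates.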

[2] = test system: BEN
Summary of the method: as §1

[3] = test system: ChaGo-K-1
Summary of the method: as §1

[4] = test system: EKVX
Summary of the method: as §1

[5] = test system: LK-2
Summary of the method: as §1

[6] = test system: NCI-H1563
Summary of the method: as §1

[7] = test system: NCI-H1650
Summary of the method: as §1

[8] = test system: NCI-H1755
Summary of the method: as §1

[9] = test system: NCI-H2085
Summary of the method: as §1

[10] = test system: NCI-H2228
Summary of the method: as §1

[11] = test system: NCI-H2347
Summary of the method: as §1

[12] = test system: NCI-H3122
Summary of the method: as §1

[13] = test system: NCI-H322M
Summary of the method: as §1

[14] = test system: NCI-H358
Summary of the method: as §1

[15] = test system: NCI-H460
Summary of the method: as §1

[16] = test system: NCI-H520
Summary of the method: as §1

[17] = test system: NCI-H596
Summary of the method: as §1

[18] = test system: NCI-H650
Summary of the method: as §1

[19] = test system: NCI-H727
Summary of the method: as §1

[20] = test system: NCI-H838
Summary of the method: as §1

[21] = test system: SW 1573
Summary of the method: as §1

[22] = test system: SW 900
Summary of the method: as §1

Question: With `COCC1(CO)C(=O)C2CCN1CC2` (centres undefined) [PRIMA-1MET] + COc1cccc2cc(-c3nc([C@H]4CC[C@H](C(=O)O)CC4)n4ncnc(N)c34)[nH]c12 [OSI-027] (partner 0.5 µM) as the compound, how does the relative viability ([1]; first compound 0.2 µM) read?
Answer: 0.284

Question: And the relative viability ([1]; first compound 0.6325 µM)?
Answer: 0.444

Question: And the relative viability ([1]; first compound 2 µM)?
Answer: 0.389

Question: And the relative viability ([1]; first compound 6.325 µM)?
Answer: 0.263

Question: And the relative viability ([1]; first compound 20 µM)?
Answer: 0.369

Question: And the relative viability ([2]; first compound 0.2 µM)?
Answer: 0.283

Question: What about the relative viability ([2]; first compound 0.6325 µM) of the same compound?
Answer: 0.304

Question: What about the relative viability ([2]; first compound 6.325 µM) of the same compound?
Answer: 0.287

Question: And the relative viability ([2]; first compound 20 µM)?
Answer: 0.336

Question: And the relative viability ([3]; first compound 0.2 µM)?
Answer: 0.581

Question: And the relative viability ([3]; first compound 0.6325 µM)?
Answer: 0.518

Question: What about the relative viability ([3]; first compound 2 µM) of the same compound?
Answer: 0.522

Question: And the relative viability ([3]; first compound 6.325 µM)?
Answer: 0.53

Question: And the relative viability ([3]; first compound 20 µM)?
Answer: 0.448

Question: What about the relative viability ([4]; first compound 0.2 µM) of the same compound?
Answer: 0.915

Question: What about the relative viability ([4]; first compound 0.6325 µM) of the same compound?
Answer: 0.723

Question: And the relative viability ([4]; first compound 6.325 µM)?
Answer: 0.78

Question: And the relative viability ([4]; first compound 20 µM)?
Answer: 0.695

Question: And the relative viability ([5]; first compound 0.2 µM)?
Answer: 0.201

Question: What about the relative viability ([5]; first compound 0.6325 µM) of the same compound?
Answer: 0.186

Question: What about the relative viability ([5]; first compound 2 µM) of the same compound?
Answer: 0.155

Question: And the relative viability ([5]; first compound 6.325 µM)?
Answer: 0.149

Question: What about the relative viability ([5]; first compound 20 µM) of the same compound?
Answer: 0.118

Question: What about the relative viability ([6]; first compound 0.2 µM) of the same compound?
Answer: 0.854

Question: And the relative viability ([6]; first compound 0.6325 µM)?
Answer: 0.789

Question: And the relative viability ([6]; first compound 2 µM)?
Answer: 0.735

Question: And the relative viability ([6]; first compound 6.325 µM)?
Answer: 0.744

Question: And the relative viability ([6]; first compound 20 µM)?
Answer: 0.327

Question: What about the relative viability ([7]; first compound 0.2 µM) of the same compound?
Answer: 0.742

Question: What about the relative viability ([7]; first compound 0.6325 µM) of the same compound?
Answer: 0.664

Question: What about the relative viability ([7]; first compound 2 µM) of the same compound?
Answer: 0.483

Question: What about the relative viability ([7]; first compound 6.325 µM) of the same compound?
Answer: 0.636

Question: And the relative viability ([7]; first compound 20 µM)?
Answer: 0.0483

Question: What about the relative viability ([8]; first compound 0.2 µM) of the same compound?
Answer: 0.664

Question: What about the relative viability ([8]; first compound 0.6325 µM) of the same compound?
Answer: 0.668

Question: What about the relative viability ([8]; first compound 2 µM) of the same compound?
Answer: 0.402

Question: And the relative viability ([8]; first compound 6.325 µM)?
Answer: 0.682

Question: And the relative viability ([8]; first compound 20 µM)?
Answer: 0.673

Question: And the relative viability ([9]; first compound 0.2 µM)?
Answer: 0.707

Question: What about the relative viability ([9]; first compound 0.6325 µM) of the same compound?
Answer: 0.665

Question: And the relative viability ([9]; first compound 2 µM)?
Answer: 0.315

Question: What about the relative viability ([9]; first compound 6.325 µM) of the same compound?
Answer: 0.548

Question: And the relative viability ([9]; first compound 20 µM)?
Answer: 0.194

Question: What about the relative viability ([10]; first compound 0.2 µM) of the same compound?
Answer: 0.578

Question: What about the relative viability ([10]; first compound 0.6325 µM) of the same compound?
Answer: 0.462

Question: And the relative viability ([10]; first compound 2 µM)?
Answer: 0.442

Question: And the relative viability ([10]; first compound 6.325 µM)?
Answer: 0.481

Question: What about the relative viability ([10]; first compound 20 µM) of the same compound?
Answer: 0.0285

Question: What about the relative viability ([11]; first compound 0.2 µM) of the same compound?
Answer: 0.428

Question: And the relative viability ([11]; first compound 0.6325 µM)?
Answer: 0.496

Question: And the relative viability ([11]; first compound 2 µM)?
Answer: 0.247

Question: What about the relative viability ([11]; first compound 6.325 µM) of the same compound?
Answer: 0.336

Question: What about the relative viability ([11]; first compound 20 µM) of the same compound?
Answer: 0.311

Question: And the relative viability ([12]; first compound 0.2 µM)?
Answer: 0.594

Question: What about the relative viability ([12]; first compound 0.6325 µM) of the same compound?
Answer: 0.871

Question: And the relative viability ([12]; first compound 6.325 µM)?
Answer: 0.74

Question: What about the relative viability ([12]; first compound 20 µM) of the same compound?
Answer: 0.831

Question: And the relative viability ([13]; first compound 0.2 µM)?
Answer: 0.494

Question: What about the relative viability ([13]; first compound 0.6325 µM) of the same compound?
Answer: 0.289

Question: And the relative viability ([13]; first compound 6.325 µM)?
Answer: 0.57

Question: And the relative viability ([13]; first compound 20 µM)?
Answer: 0.13

Question: What about the relative viability ([14]; first compound 0.2 µM) of the same compound?
Answer: 0.734

Question: What about the relative viability ([14]; first compound 2 µM) of the same compound?
Answer: 0.653

Question: And the relative viability ([14]; first compound 6.325 µM)?
Answer: 0.954

Question: What about the relative viability ([14]; first compound 20 µM) of the same compound?
Answer: 0.365

Question: And the relative viability ([15]; first compound 0.2 µM)?
Answer: 0.653

Question: What about the relative viability ([15]; first compound 0.6325 µM) of the same compound?
Answer: 0.624

Question: And the relative viability ([15]; first compound 2 µM)?
Answer: 0.487

Question: And the relative viability ([15]; first compound 6.325 µM)?
Answer: 0.323

Question: What about the relative viability ([15]; first compound 20 µM) of the same compound?
Answer: 0.0164

Question: And the relative viability ([16]; first compound 0.2 µM)?
Answer: 0.31

Question: What about the relative viability ([16]; first compound 0.6325 µM) of the same compound?
Answer: 0.213

Question: What about the relative viability ([16]; first compound 2 µM) of the same compound?
Answer: 0.169

Question: And the relative viability ([16]; first compound 6.325 µM)?
Answer: 0.197

Question: And the relative viability ([16]; first compound 20 µM)?
Answer: 0.143

Question: And the relative viability ([17]; first compound 0.2 µM)?
Answer: 0.747

Question: What about the relative viability ([17]; first compound 0.6325 µM) of the same compound?
Answer: 0.635

Question: And the relative viability ([17]; first compound 2 µM)?
Answer: 0.457

Question: What about the relative viability ([17]; first compound 6.325 µM) of the same compound?
Answer: 0.893

Question: And the relative viability ([17]; first compound 20 µM)?
Answer: 0.645

Question: What about the relative viability ([18]; first compound 0.2 µM) of the same compound?
Answer: 0.705

Question: And the relative viability ([18]; first compound 2 µM)?
Answer: 0.5

Question: What about the relative viability ([18]; first compound 6.325 µM) of the same compound?
Answer: 0.603

Question: And the relative viability ([18]; first compound 20 µM)?
Answer: 0.381

Question: What about the relative viability ([19]; first compound 0.2 µM) of the same compound?
Answer: 0.357

Question: And the relative viability ([19]; first compound 0.6325 µM)?
Answer: 0.371

Question: And the relative viability ([19]; first compound 2 µM)?
Answer: 0.498

Question: What about the relative viability ([19]; first compound 6.325 µM) of the same compound?
Answer: 0.536

Question: What about the relative viability ([19]; first compound 20 µM) of the same compound?
Answer: 0.338

Question: And the relative viability ([20]; first compound 0.2 µM)?
Answer: 0.428

Question: And the relative viability ([20]; first compound 0.6325 µM)?
Answer: 0.5

Question: What about the relative viability ([20]; first compound 2 µM) of the same compound?
Answer: 0.295

Question: And the relative viability ([20]; first compound 6.325 µM)?
Answer: 0.395

Question: And the relative viability ([20]; first compound 20 µM)?
Answer: 0.0935

Question: What about the relative viability ([21]; first compound 0.2 µM) of the same compound?
Answer: 0.622

Question: And the relative viability ([21]; first compound 0.6325 µM)?
Answer: 0.482

Question: And the relative viability ([21]; first compound 2 µM)?
Answer: 0.597

Question: What about the relative viability ([21]; first compound 6.325 µM) of the same compound?
Answer: 0.0316

Question: And the relative viability ([21]; first compound 20 µM)?
Answer: 0.032

Question: And the relative viability ([22]; first compound 0.2 µM)?
Answer: 0.54

Question: What about the relative viability ([22]; first compound 0.6325 µM) of the same compound?
Answer: 0.451

Question: What about the relative viability ([22]; first compound 2 µM) of the same compound?
Answer: 0.471

Question: What about the relative viability ([22]; first compound 6.325 µM) of the same compound?
Answer: 0.362

Question: What about the relative viability ([22]; first compound 20 µM) of the same compound?
Answer: 0.0628
